Data set [1] can be described thus: Absorption and fluorescence emission spectra in DMF. In kind it is physicochemical. Conditions: for ε, extinction coefficient / λA, absorption maximum in the Q-band / λF, fluorescence emission maximum: in DMF. As to the method:
An absorption spectrum of 2.475 mL of solvent (water, DMF, or PBS) was taken (i.e., absorption spectrum of baseline); then, 25 μL of stock solution was added to reach the final concentration of 1 μM in the cuvette, and the absorption and emission spectra were taken. Baseline of the solvent was subtracted from the obtained absorption spectrum to get the final absorption spectrum of the sample.

Data set [2] in a line: Fluorescence quantum yield, comparative method. In kind it is physicochemical. Conditions: in DMF; ZnPc as reference. As to the method: The fluorescence quantum yields (ΦF) were determined by a comparative method with ZnPc as the reference (ΦF = 0.32 in THF). The ΦF values were calculated using the following formula: ϕFS=ϕFR(F^S/F^R)(1−10^−A^R/1−10^−A^S)(η^S/η^R)^2 where F is the integrated area under the emission spectrum and A is the absorbance at the excitation wavelength. Superscripts R and S indicate the reference and sample, respectively. η stands for the refractive index of the solvent. Absorption in the Q-band was kept below 0.05 to eliminate the inner filter effect. Excitation wavelengths were the same as those used for emission spectra (see above). The emission wavelengths were set to their emission maxima to avoid exceeding the detector limit with stimated error ± 15%.

Data set [3] in a line: Fluorescence lifetime in DMF. It is filed as physicochemical. The text has this:
1 Photophysical Data of Investigated Derivatives in DMF ^a | column: τF1/ns; τF2/ns

A short description of data set [4]: Quantum yield of singlet oxygen production, comparative method with DPBF scavenger. In kind it is physicochemical. To be noted: in DMF, ZnPc as reference. As to the method:
Eight μL of the 100 μM stock solution of the dye in DMF (or DMF + water or water; see above) was added. A xenon lamp (100 W, ozone free XE DC short arc lamp, New port) was used to irradiate the sample while stirring. The incident light was filtered through a water filter (6 cm) and cut off filter OG530 eliminating heat and light under 523 nm, respectively. […] The decrease of DPBF in solution with irradiation time was monitored at 415 nm. The values of ΦΔ of the dyes were calculated by the following equation: φΔS=φΔ[…] is the slope of the plot of the dependence of ln([…] 0 and A t being the absorbances of the DPBF at 415 nm before irradiation and after irradiation time t, respectively. I aT is the total amount of light absorbed by the dye sample. Superscripts R and S indicate the reference and sample, respectively. I aT is calculated as a sum of intensities of the absorbed light I a at wavelengths from 523 to 850 nm (step 0.5 nm). Light under 523 nm is completely filtered by an OG530 filter, and light above 850 nm is not absorbed by the studied dye sample. I a at a given wavelength is calculated using Beer-Lambert'[…]) where I 0 is transmittance of the filter at the given wavelength and A is the absorbance of the dye at this wavelength. All experiments were performed three times, and the data presented is the mean value of the three obtained results with estimated error ± 10%.

Data set [5] can be described thus: Log P, partition between n-octanol and PBS. In kind it is physicochemical. As to the method: 400 μL portion of n-octanol and 400 μL of PBS buffer were mixed in a plastic Eppendorf vial. Then, 20 μL of the 100 μM stock solution of the sample (see above) was added to this mixture, vortexed for 5 min at rt, and then centrifuged for 10 min (10 000 rpm, rt). 50 μL of each of these layers was taken into 2.5 mL of DMF in a quartz cuvette, and their emission spectra (excitation wavelengths in Table ) were recorded. The log P value was then computed using the area under the curve of the emission spectra of n-octanol (F oct) and PBS buffer (F PBS) layers as follows: logP=log(Foct/FPBS) Triplicate measurements were performed, and the data reported are the mean of the obtained results.

For data set [6], the target named is bovine serum albumin (BSA) (Bos taurus, UniProt P02769). The experiment in a line: Interaction with bovine serum albumin (absorption and emission spectra in PBS). In kind it is binding. Conditions: 1 μM Pc in PBS, BSA 17.5, 35 and 100 μM.
Data set [7] relates to HeLa (human cervical carcinoma). Conditions: ref number not given, cited from earlier work.
[8] abbreviates: partition coefficient between 1-octanol and PBS.

The structures appear in SMILES notation. Where two headings read alike, the source gives them in different places.

Chain of bovine serum albumin (BSA) (P02769 25-607): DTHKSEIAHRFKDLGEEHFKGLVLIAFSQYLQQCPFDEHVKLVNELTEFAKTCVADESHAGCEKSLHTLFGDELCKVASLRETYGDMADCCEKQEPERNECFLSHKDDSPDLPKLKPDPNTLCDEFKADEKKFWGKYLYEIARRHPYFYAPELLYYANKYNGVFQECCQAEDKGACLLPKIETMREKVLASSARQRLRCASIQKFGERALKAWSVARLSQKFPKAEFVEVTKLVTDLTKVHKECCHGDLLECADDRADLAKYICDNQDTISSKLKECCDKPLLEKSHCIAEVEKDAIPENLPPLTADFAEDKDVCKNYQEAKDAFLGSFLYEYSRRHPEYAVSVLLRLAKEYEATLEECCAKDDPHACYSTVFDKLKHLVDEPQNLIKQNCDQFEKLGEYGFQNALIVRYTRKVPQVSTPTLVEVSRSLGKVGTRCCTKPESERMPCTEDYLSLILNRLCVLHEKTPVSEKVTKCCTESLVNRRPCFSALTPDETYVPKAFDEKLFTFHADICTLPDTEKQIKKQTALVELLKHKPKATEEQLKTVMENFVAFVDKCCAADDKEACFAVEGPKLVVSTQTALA

Regarding `O=S(=O)([O-])c1ccc(Oc2ccc3c(c2)C2=Cc4c5ccc(Oc6ccc(S(=O)(=O)[O-])c7cccnc67)cc5c5[n]4[Zn][n]4c(c6ccc(Oc7ccc(S(=O)(=O)[O-])c8cccnc78)cc6c4=CC3=N2)=CC2=NC(=C5)c3ccc(Oc4ccc(S(=O)(=O)[O-])c5cccnc45)cc32)c2ncccc12.[Na+].[Na+].[Na+].[Na+]` [A6Zn], in data set [1], the “ε, extinction coefficient” value was 122 420 M^–1cm^–1; the “λA, absorption maximum in the Q-band” value stood at 681 nm; the “λF, fluorescence emission maximum” value was 692 nm. The “ΦF, fluorescence quantum yield” value in data set [2] was 0.28. For the same compound, in data set [3], the “τF1, fluorescence lifetime (relative amplitude in brackets)” value stood at 3.14 ns. In data set [4], the “ΦΔ, quantum yield of singlet oxygen production” value (“ΦΔ, quantum yield” below) turned out to be 0.58. For the same compound, the “Log P” value in data set [5] (setting [8]) is given as “–2.89”. Also, the “Interaction with BSA: disaggregation/monomerization and changes in absorption and fluorescence emission spectra” value in data set [6] was “partial”.

What is called EC50 is the midpoint of the concentration-response curve. As for `O=C([O-])c1cc(C(=O)[O-])cc(-c2nc3c(nc2-c2cc(C(=O)[O-])cc(C(=O)[O-])c2)C2=Nc4c5nc(-c6cc(C(=O)[O-])cc(C(=O)[O-])c6)c(-c6cc(C(=O)[O-])cc(C(=O)[O-])c6)nc5c5[n]4[Zn][n]4c(c6nc(-c7cc(C(=O)[O-])cc(C(=O)[O-])c7)c(-c7cc(C(=O)[O-])cc(C(=O)[O-])c7)nc6c4=NC4=NC(=N5)c5nc(-c6cc(C(=O)[O-])cc(C(=O)[O-])c6)c(-c6cc(C(=O)[O-])cc(C(=O)[O-])c6)nc54)=NC3=N2)c1.[Na+].[Na+].[Na+].[Na+].[Na+].[Na+].[Na+].[Na+].[Na+].[Na+].[Na+].[Na+].[Na+].[Na+].[Na+].[Na+]` [A5Zn], in data set [1], the “ε, extinction coefficient” value is 138 740 M^–1cm^–1; the “λA, absorption maximum in the Q-band” value came to 659 nm; the “λF, fluorescence emission maximum” value is on record as 675 nm. In data set [2], the “ΦF, fluorescence quantum yield” value stood at 0.03. Further, in data set [4], the “ΦΔ, quantum yield” value is 0.21. The “Log P” value in data set [5] (setting [8]) is listed as “–3.27”. Further, in data set [6], the “Interaction with BSA: disaggregation/monomerization and changes in absorption and fluorescence emission spectra” value is recorded as “slight bathochromic shift in the Q-band accompanied by partial quenching of the excited states”; the “quenching of excited states upon BSA addition (decrease in Q-band maximum and fluorescence intensity)” value is given as “significant”. For the same compound, the EC50 in data set [7] (12 h incubation, Xe-lamp 15 min, λ > 570 nm, 11.2 J/cm^2, mean ± SD, determined previously under the same conditions at the same workplace and published, read-out: EC50 (nM) HeLa) is 5700 ± 1100 nM.

Regarding `Cc1cc(OCc2cn(CCOCCOCCO)nn2)c(Oc2nc3c(nc2Oc2c(OCc4cn(CCOCCOCCO)nn4)cc(C)cc2OCc2cn(CCOCCOCCO)nn2)C2=Nc4c5nc(Oc6c(OCc7cn(CCOCCOCCO)nn7)cc(C)cc6OCc6cn(CCOCCOCCO)nn6)c(Oc6c(OCc7cn(CCOCCOCCO)nn7)cc(C)cc6OCc6cn(CCOCCOCCO)nn6)nc5c5[n]4[Zn][n]4c(c6nc(Oc7c(OCc8cn(CCOCCOCCO)nn8)cc(C)cc7OCc7cn(CCOCCOCCO)nn7)c(Oc7c(OCc8cn(CCOCCOCCO)nn8)cc(C)cc7OCc7cn(CCOCCOCCO)nn7)nc6c4=NC4=NC(=N5)c5nc(Oc6c(OCc7cn(CCOCCOCCO)nn7)cc(C)cc6OCc6cn(CCOCCOCCO)nn6)c(Oc6c(OCc7cn(CCOCCOCCO)nn7)cc(C)cc6OCc6cn(CCOCCOCCO)nn6)nc54)=NC3=N2)c(OCc2cn(CCOCCOCCO)nn2)c1` [N7Zn], in data set [1], the “ε, extinction coefficient” value is on record as 195 490 M^–1cm^–1; the “λA, absorption maximum in the Q-band” value worked out at 629 nm; the “λF, fluorescence emission maximum” value was 641 nm. In data set [1] (pyrazine analogs vs A4Zn and N6Zn, DMF), the “blueshift of the Q-band vs corresponding Pc analogue” value worked out at 35 nm. The “ΦF, fluorescence quantum yield” value in data set [2] is 0.18. Moreover, in data set [3], the “τF1, fluorescence lifetime (relative amplitude in brackets)” value is 0.74 (5%) ns and the “τF2, fluorescence lifetime (relative amplitude in brackets)” value is given as 2.45 (95%) ns. In data set [4], the “ΦΔ, quantum yield” value is reported as 0.58. Further, the “Log P” value in data set [5] is listed as “–1.60”.

Take `C[n+]1cccc(Oc2ccc3c(c2)C2=NC3=Nc3c4cc(Oc5ccc[n+](C)c5)ccc4c4[n]3[Zn][n]3c(c5ccc(Oc6ccc[n+](C)c6)cc5c3=NC3=NC(=N4)c4cc(Oc5ccc[n+](C)c5)ccc43)=N2)c1` [C5Zn]: the “Interaction with BSA: disaggregation/monomerization and changes in absorption and fluorescence emission spectra” value in data set [6] is “slight decrease in the absorption band (without a shift in the spectrum) but was accompanied by a slight increase in the fluorescence intensity”.

Regarding `Cc1cc(OCc2cn(CCOCCOCCO)nn2)c(Oc2cc3c(cc2Oc2c(OCc4cn(CCOCCOCCO)nn4)cc(C)cc2OCc2cn(CCOCCOCCO)nn2)C2=Nc4c5cc(Oc6c(OCc7cn(CCOCCOCCO)nn7)cc(C)cc6OCc6cn(CCOCCOCCO)nn6)c(Oc6c(OCc7cn(CCOCCOCCO)nn7)cc(C)cc6OCc6cn(CCOCCOCCO)nn6)cc5c5[n]4[Zn][n]4c(c6cc(Oc7c(OCc8cn(CCOCCOCCO)nn8)cc(C)cc7OCc7cn(CCOCCOCCO)nn7)c(Oc7c(OCc8cn(CCOCCOCCO)nn8)cc(C)cc7OCc7cn(CCOCCOCCO)nn7)cc6c4=NC4=NC(=N5)c5cc(Oc6c(OCc7cn(CCOCCOCCO)nn7)cc(C)cc6OCc6cn(CCOCCOCCO)nn6)c(Oc6c(OCc7cn(CCOCCOCCO)nn7)cc(C)cc6OCc6cn(CCOCCOCCO)nn6)cc54)=NC3=N2)c(OCc2cn(CCOCCOCCO)nn2)c1` [N6Zn], in data set [1], the “ε, extinction coefficient” value is given as 237 520 M^–1cm^–1; the “λA, absorption maximum in the Q-band” value is 681 nm; the “λF, fluorescence emission maximum” value is recorded as 690 nm. In addition, the “ΦF, fluorescence quantum yield” value in data set [2] was 0.26. In addition, in data set [3], the “τF1, fluorescence lifetime (relative amplitude in brackets)” value is given as 1.04 (3%) ns and the “τF2, fluorescence lifetime (relative amplitude in brackets)” value is recorded as 3.17 (97%) ns. The “ΦΔ, quantum yield” value in data set [4] turned out to be 0.46. The concentration for a half-maximal effect (EC50) in data set [7] (same irradiation conditions, previously published per Table 2, read-out: EC50 (HeLa)) was 69700 nM.
